Data as given in patent US6706663B2, “Herbicidal 3-heterocyclic substituted benzisothiazole and benzisoxazole compounds” (Wyeth, priority 2000, dated 2004).

Tests used:
ORYSAT (Rice, Tebonnet) [1] = experiment: Postemergence herbicidal evaluation; format: in vivo, Oryza sativa, (L.) Tebonnet
Procedure, shortened: (§1)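 Visual 0–9 injury scores versus control plants, covering stand, vigour, malformation, size, chlorosis and general appearance, taken four to five weeks post-spray and averaged over replicate tests. Plants were sprayed at roughly two weeks old and held on greenhouse benches.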

ZEAMX (Corn, Field) = experiment: Postemergence herbicidal evaluation; format: in vivo, Zea mays, L.
Procedure, shortened: as §1

[2] = system: ABUTH (Abutilon theophrasti); experiment: Preemergence herbicidal evaluation; format: in vivo, Medic.; conditions: rated 4-5 weeks after treatment
[3] = system: SAGPY (Sagittaria pygmaea); experiment: Flooded paddy, preemergence weed control; format: in vivo, L.; conditions: rated 3-4 weeks after treatment, 0-9 rating scale
Procedure, shortened: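 Ratings of 0-9 reflect visual comparison with a control for stand, vigor, deformity, size, chlorosis and overall look. Propagules were placed in shallow silt loam (top 0.5 cm) under a continuous 1.5–3 cm flood and grown in the greenhouse.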

[4] = system: TRZAWR (Wheat, Winter, cv Riband); experiment: Preemergence herbicidal evaluation; format: in vivo, Triticum aestivum; conditions: rated 4-5 weeks after treatment
Procedure, shortened: (§2)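 Rating 0–9, visual, vs control; 4–5 wk after spraying seeded cups with compound in aq. acetone; conventional greenhouse care.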

GALAP (Galium aparine) [5] = experiment: Preemergence herbicidal evaluation; format: in vivo; conditions: rated 4-5 weeks after treatment
Procedure, shortened: as §2

[6] = system: ABUTH (Abutilon theophrasti); experiment: Postemergence herbicidal evaluation; format: in vivo, Medic.
Procedure, shortened: as §1

ORYSAT (Rice, Tebonnet) [7] = experiment: Flooded paddy, post-transplant rice tolerance; format: in vivo, Oryza sativa, (L.) Tebonnet; conditions: flooded paddy, post-transplant rice, rated 3-4 weeks after treatment, 0-9 rating scale
Procedure, shortened: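 Scores (0-9) reflect visual injury relative to untreated plants in flooded silt loam. Each pot held two transplanted ten-day-old seedlings under 1.5 to 3 cm standing water in the greenhouse.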

ORYSAT (Rice, Tebonnet) [8] = experiment: Preemergence herbicidal evaluation; format: in vivo, Oryza sativa, (L.) Tebonnet; conditions: rated 4-5 weeks after treatment
[9] = system: CHEAL (Chenopodium album); experiment: Preemergence herbicidal evaluation; format: in vivo, L.; conditions: rated 4-5 weeks after treatment
Procedure, shortened: as §2

[10] = system: CASOB (Cassia obtusifolia); experiment: Preemergence herbicidal evaluation; format: in vivo, L.; conditions: rated 4-5 weeks after treatment
Procedure, shortened: as §2

[11] = system: AMBEL (Ambrosia artemisifolia); experiment: Preemergence herbicidal evaluation; format: in vivo, L.; conditions: rated 4-5 weeks after treatment
Procedure, shortened: as §2

[12] = system: CHEAL (Chenopodium album); experiment: Postemergence herbicidal evaluation; format: in vivo, L.
Procedure, shortened: as §1

[13] = system: CASOB (Cassia obtusifolia); experiment: Postemergence herbicidal evaluation; format: in vivo, L.
Procedure, shortened: as §1

[14] = system: AMBEL (Ambrosia artemisifolia); experiment: Postemergence herbicidal evaluation; format: in vivo, L.
Procedure, shortened: as §1

[15] = system: GLXMAW (Soybean, Williams); experiment: Postemergence herbicidal evaluation; format: in vivo, Glycine max, (L.) Merr. cv Williams
Procedure, shortened: as §1

[16] = system: CYPSE (Cyperus serotinus); experiment: Flooded paddy, preemergence weed control; format: in vivo, Rottb.; conditions: rated 3-4 weeks after treatment, 0-9 rating scale
Procedure, shortened: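 Seeds or propagules were planted 0.5 cm deep in silt loam and flooded to 1.5–3 cm. Compounds in 50/50 v/v aqueous/acetone were pipetted into the flood water at about 0.0080 to 0.1250 kg/ha. After 3–4 weeks in the greenhouse, effect was rated visually on a 0–9 scale versus untreated control.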

[17] = system: IPOHE (Ipomoea hederacea); experiment: Preemergence herbicidal evaluation; format: in vivo, (L.) Jacq.; conditions: rated 4-5 weeks after treatment
GALAP (Galium aparine) [18] = experiment: Postemergence herbicidal evaluation; format: in vivo
Procedure, shortened: as §1

[19] = system: ECHCG (Echinochloa crus-galli); experiment: Postemergence herbicidal evaluation; format: in vivo, (L.) Beau
Procedure, shortened: as §1

`Cc1ccc(-c2nsc3ccc(-n4c(=O)cc(C(F)(F)F)n(C)c4=O)cc23)nc1` [Compound 42, 1-methyl-3-[3-(5-methyl-2-pyridyl)-1,2-benzisothiazol-5-yl]-6-(trifluoromethyl)uracil] was tested, and the “Postemergence herbicidal rating, ORYSAT” value (ORYSAT (Rice, Tebonnet) [1]; rate 0.0320 kg/ha) was 1.0, the “Postemergence herbicidal rating, ORYSAT” value (ORYSAT (Rice, Tebonnet) [1]; rate 0.0620 kg/ha) was 1.5 and the “Postemergence herbicidal rating, ORYSAT” value (ORYSAT (Rice, Tebonnet) [1]; rate 0.1250 kg/ha) was 1.5. The “Postemergence herbicidal rating, ZEAMX” value (ZEAMX (Corn, Field); rate 0.0320 kg/ha) was 5.5, the “Postemergence herbicidal rating, ZEAMX” value (ZEAMX (Corn, Field); rate 0.0620 kg/ha) was 5.5 and the “Postemergence herbicidal rating, ZEAMX” value (ZEAMX (Corn, Field); rate 0.1250 kg/ha) was 5.5. For the same compound, the “Preemergence herbicidal rating ABUTH” value ([2]; Rate 0.0620 kg/ha) was 2.0, the “Preemergence herbicidal rating ABUTH” value ([2]; Rate 0.1250 kg/ha) was 6.5 and the “Preemergence herbicidal rating ABUTH” value ([2]; Rate 0.2500 kg/ha) was 9.0. For the same compound, the “herbicidal rating, SAGPY” value ([3]; rate 0.0320 kg/ha) was 0.0, the “herbicidal rating, SAGPY” value ([3]; rate 0.1250 kg/ha) was 3.0 and the “Preemergence herbicidal rating TRZAWR” value ([4]; Rate 0.0620 kg/ha) was 0.0. For the same compound, the “Preemergence herbicidal rating TRZAWR” value ([4]; Rate 0.1250 kg/ha) was 2.0, the “Preemergence herbicidal rating TRZAWR” value ([4]; Rate 0.2500 kg/ha) was 5.0 and the “Preemergence herbicidal rating GALAP” value (GALAP (Galium aparine) [5]; Rate 0.0620 kg/ha) was 0.0. For the same compound, the “Preemergence herbicidal rating GALAP” value (GALAP (Galium aparine) [5]; Rate 0.1250 kg/ha) was 0.0, the “Preemergence herbicidal rating GALAP” value (GALAP (Galium aparine) [5]; Rate 0.2500 kg/ha) was 3.0 and the “Postemergence herbicidal rating, ABUTH” value ([6]; rate 0.0320 kg/ha) was 9.0. The “Postemergence herbicidal rating, ABUTH” value ([6]; rate 0.0620 kg/ha) was 9.0, the “Postemergence herbicidal rating, ABUTH” value ([6]; rate 0.1250 kg/ha) was 9.0 and the “herbicidal rating, ORYSAT (rice tolerance)” value (ORYSAT (Rice, Tebonnet) [7]; rate 0.0320 kg/ha) was 3.0. The “herbicidal rating, ORYSAT (rice tolerance)” value (ORYSAT (Rice, Tebonnet) [7]; rate 0.1250 kg/ha) was 4.0, the “Preemergence herbicidal rating ORYSAT” value (ORYSAT (Rice, Tebonnet) [8]; Rate 0.0620 kg/ha) was 0.0 and the “Preemergence herbicidal rating ORYSAT” value (ORYSAT (Rice, Tebonnet) [8]; Rate 0.1250 kg/ha) was 3.5. For the same compound, the “Preemergence herbicidal rating ORYSAT” value (ORYSAT (Rice, Tebonnet) [8]; Rate 0.2500 kg/ha) was 5.0, the “Preemergence herbicidal rating CHEAL” value ([9]; Rate 0.0620 kg/ha) was 9.0 and the “Preemergence herbicidal rating CHEAL” value ([9]; Rate 0.1250 kg/ha) was 9.0. For the same compound, the “Preemergence herbicidal rating CHEAL” value ([9]; Rate 0.2500 kg/ha) was 9.0, the “Preemergence herbicidal rating CASOB” value ([10]; Rate 0.0620 kg/ha) was 0.5 and the “Preemergence herbicidal rating CASOB” value ([10]; Rate 0.1250 kg/ha) was 0.5. For the same compound, the “Preemergence herbicidal rating CASOB” value ([10]; Rate 0.2500 kg/ha) was 0.0, the “Preemergence herbicidal rating AMBEL” value ([11]; Rate 0.0620 kg/ha) was 1.0 and the “Preemergence herbicidal rating AMBEL” value ([11]; Rate 0.1250 kg/ha) was 4.5. The “Preemergence herbicidal rating AMBEL” value ([11]; Rate 0.2500 kg/ha) was 9.0, the “Postemergence herbicidal rating, CHEAL” value ([12]; rate 0.0320 kg/ha) was 9.0 and the “Postemergence herbicidal rating, CHEAL” value ([12]; rate 0.0620 kg/ha) was 9.0. For the same compound, the “Postemergence herbicidal rating, CHEAL” value ([12]; rate 0.1250 kg/ha) was 9.0, the “Postemergence herbicidal rating, CASOB” value ([13]; rate 0.0320 kg/ha) was 1.0 and the “Postemergence herbicidal rating, CASOB” value ([13]; rate 0.0620 kg/ha) was 1.0. For the same compound, the “Postemergence herbicidal rating, CASOB” value ([13]; rate 0.1250 kg/ha) was 4.0, the “Postemergence herbicidal rating, AMBEL” value ([14]; rate 0.0320 kg/ha) was 9.0 and the “Postemergence herbicidal rating, AMBEL” value ([14]; rate 0.0620 kg/ha) was 9.0. For the same compound, the “Postemergence herbicidal rating, AMBEL” value ([14]; rate 0.1250 kg/ha) was 9.0, the “Postemergence herbicidal rating, GLXMAW” value ([15]; rate 0.0320 kg/ha) was 6.0 and the “Postemergence herbicidal rating, GLXMAW” value ([15]; rate 0.0620 kg/ha) was 8.0. For the same compound, the “Postemergence herbicidal rating, GLXMAW” value ([15]; rate 0.1250 kg/ha) was 8.0, the “herbicidal rating, CYPSE” value ([16]; rate 0.0320 kg/ha) was 0.0 and the “herbicidal rating, CYPSE” value ([16]; rate 0.1250 kg/ha) was 0.0. The “Preemergence herbicidal rating IPOHE” value ([17]; Rate 0.0620 kg/ha) was 1.0, the “Preemergence herbicidal rating IPOHE” value ([17]; Rate 0.1250 kg/ha) was 2.0 and the “Preemergence herbicidal rating IPOHE” value ([17]; Rate 0.2500 kg/ha) was 4.5. The “Postemergence herbicidal rating, GALAP” value (GALAP (Galium aparine) [18]; rate 0.0320 kg/ha) was 1.0, the “Postemergence herbicidal rating, GALAP” value (GALAP (Galium aparine) [18]; rate 0.0620 kg/ha) was 3.0 and the “Postemergence herbicidal rating, GALAP” value (GALAP (Galium aparine) [18]; rate 0.1250 kg/ha) was 3.0. For the same compound, the “Postemergence herbicidal rating, ECHCG” value ([19]; rate 0.0320 kg/ha) was 1.0, the “Postemergence herbicidal rating, ECHCG” value ([19]; rate 0.0620 kg/ha) was 1.0 and the “Postemergence herbicidal rating, ECHCG” value ([19]; rate 0.1250 kg/ha) was 3.0.
